Reference: ChEMBL document CHEMBL1201862, “PubChem BioAssay data set” (2004)
The source made the active and inactive calls.

Legend:
Type in all cases: functional
[1] = target: T1, Short transient receptor potential channel 4 (Mus musculus, UniProt Q9QUQ5); experiment: mouse TRPC4 channel inhibitors, dose response, cell-based, HEK293 TRPC4/mu-opioid, Fluo-4 calcium (AID 434942);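 note: potency of inhibitors blocking the TRPC4 calcium response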
T1 sequence (Q9QUQ5 whole entry): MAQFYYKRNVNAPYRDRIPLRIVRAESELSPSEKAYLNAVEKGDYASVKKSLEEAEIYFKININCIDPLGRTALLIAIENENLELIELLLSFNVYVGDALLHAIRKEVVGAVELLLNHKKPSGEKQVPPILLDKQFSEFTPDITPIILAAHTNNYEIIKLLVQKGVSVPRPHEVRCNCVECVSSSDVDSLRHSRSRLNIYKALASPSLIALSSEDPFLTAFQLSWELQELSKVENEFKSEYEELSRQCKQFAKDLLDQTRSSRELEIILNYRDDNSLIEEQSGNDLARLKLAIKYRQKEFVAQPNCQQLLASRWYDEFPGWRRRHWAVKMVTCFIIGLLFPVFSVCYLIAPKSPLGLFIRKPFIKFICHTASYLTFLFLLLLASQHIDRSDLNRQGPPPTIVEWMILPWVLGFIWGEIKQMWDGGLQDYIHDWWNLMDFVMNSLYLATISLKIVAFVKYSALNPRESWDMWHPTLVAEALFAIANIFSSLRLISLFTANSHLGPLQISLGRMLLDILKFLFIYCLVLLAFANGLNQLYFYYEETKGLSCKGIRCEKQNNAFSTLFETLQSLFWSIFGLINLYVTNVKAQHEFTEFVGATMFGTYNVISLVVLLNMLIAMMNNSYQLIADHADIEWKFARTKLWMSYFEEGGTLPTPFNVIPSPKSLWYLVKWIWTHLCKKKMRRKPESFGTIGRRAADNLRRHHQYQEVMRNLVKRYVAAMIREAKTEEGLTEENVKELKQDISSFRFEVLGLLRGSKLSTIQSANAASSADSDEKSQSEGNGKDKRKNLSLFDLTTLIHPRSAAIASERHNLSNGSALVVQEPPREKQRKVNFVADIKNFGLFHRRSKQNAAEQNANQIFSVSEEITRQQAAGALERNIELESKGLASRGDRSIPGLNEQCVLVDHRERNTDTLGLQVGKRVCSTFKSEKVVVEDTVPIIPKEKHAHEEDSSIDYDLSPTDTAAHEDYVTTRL

[2] = target: T2, Polyadenylate-binding protein 1 (Homo sapiens, UniProt P11940); experiment: PABP1 MLLE–PAM2 interaction inhibitors, dose response, miRNA deadenylation inhibitor project, biochemical, fluorescence polarization, Cy5-PAM2 peptide, secondary (AID 602260); settings: read-out: IC50_Mean
T2 sequence (P11940 whole entry): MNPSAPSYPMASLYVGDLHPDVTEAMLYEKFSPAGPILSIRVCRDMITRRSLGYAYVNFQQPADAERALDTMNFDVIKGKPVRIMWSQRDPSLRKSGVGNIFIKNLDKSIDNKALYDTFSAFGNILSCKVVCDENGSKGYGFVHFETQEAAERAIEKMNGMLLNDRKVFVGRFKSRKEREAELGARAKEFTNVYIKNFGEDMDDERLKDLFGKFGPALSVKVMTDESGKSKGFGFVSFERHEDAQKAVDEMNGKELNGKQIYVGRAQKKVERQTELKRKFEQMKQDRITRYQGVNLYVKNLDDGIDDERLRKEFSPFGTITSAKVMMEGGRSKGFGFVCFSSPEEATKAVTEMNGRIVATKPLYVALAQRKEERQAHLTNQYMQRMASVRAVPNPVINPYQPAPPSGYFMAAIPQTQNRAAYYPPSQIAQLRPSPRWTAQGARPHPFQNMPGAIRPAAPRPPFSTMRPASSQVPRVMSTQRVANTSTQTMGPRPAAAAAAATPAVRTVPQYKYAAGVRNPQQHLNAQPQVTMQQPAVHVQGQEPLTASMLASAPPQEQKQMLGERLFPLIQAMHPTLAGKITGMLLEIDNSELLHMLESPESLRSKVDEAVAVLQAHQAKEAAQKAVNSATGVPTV

[3] = target: T2, Polyadenylate-binding protein 1; experiment: PABP1 MLLE–PAM2 binding inhibitor potency, dose response, biochemical, fluorescence polarization, FITC-PAM2 peptide (AID 602259); settings: read-out: IC50_Mean
[4] = Luminescence Cell-Based Dose Retest to Confirm Inhibitors of Cancer Stem Cells. [Related pubchem assays (depositor defined):AID2717, AID2721]; settings: Homo sapiens
[5] = target: T3, Heat shock factor protein 1 (Mus musculus, UniProt P38532); experiment: HSF1 potentiators in luciferase reporter cells, confirmation, cell-based, NIH3T3, luminescence, dose retest (AID 435004);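 note: stress induced by proteasome inhibitor MG132 added 30 min after compound; luciferase reporter driven by HSF1 response element in NIH3T3 cells; actives raise luminescence as potentiators of the MG132 stress response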
T3 sequence (P38532 whole entry): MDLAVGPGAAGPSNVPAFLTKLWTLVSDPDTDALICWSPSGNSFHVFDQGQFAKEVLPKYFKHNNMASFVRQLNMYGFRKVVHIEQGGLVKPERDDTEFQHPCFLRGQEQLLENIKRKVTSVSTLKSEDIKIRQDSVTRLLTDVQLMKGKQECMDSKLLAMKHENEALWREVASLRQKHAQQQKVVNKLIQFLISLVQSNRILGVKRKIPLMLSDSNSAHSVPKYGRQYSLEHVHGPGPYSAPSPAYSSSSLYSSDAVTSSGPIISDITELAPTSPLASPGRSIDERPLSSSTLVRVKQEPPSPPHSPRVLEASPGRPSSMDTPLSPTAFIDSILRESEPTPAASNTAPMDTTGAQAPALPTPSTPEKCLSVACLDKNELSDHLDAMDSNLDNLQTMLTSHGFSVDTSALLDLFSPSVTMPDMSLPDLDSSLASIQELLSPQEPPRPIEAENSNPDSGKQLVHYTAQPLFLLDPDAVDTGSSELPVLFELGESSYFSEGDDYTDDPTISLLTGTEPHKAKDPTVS

Genome polyprotein = Genome polyprotein (dengue virus type 2, UniProt P29990); experiment: Dengue-2 NS5 methyltransferase inhibitors, primary screen, biochemical, confirmation dose response (AID 588689)
Chain of Genome polyprotein (P29990 2492-3391 limits assumed): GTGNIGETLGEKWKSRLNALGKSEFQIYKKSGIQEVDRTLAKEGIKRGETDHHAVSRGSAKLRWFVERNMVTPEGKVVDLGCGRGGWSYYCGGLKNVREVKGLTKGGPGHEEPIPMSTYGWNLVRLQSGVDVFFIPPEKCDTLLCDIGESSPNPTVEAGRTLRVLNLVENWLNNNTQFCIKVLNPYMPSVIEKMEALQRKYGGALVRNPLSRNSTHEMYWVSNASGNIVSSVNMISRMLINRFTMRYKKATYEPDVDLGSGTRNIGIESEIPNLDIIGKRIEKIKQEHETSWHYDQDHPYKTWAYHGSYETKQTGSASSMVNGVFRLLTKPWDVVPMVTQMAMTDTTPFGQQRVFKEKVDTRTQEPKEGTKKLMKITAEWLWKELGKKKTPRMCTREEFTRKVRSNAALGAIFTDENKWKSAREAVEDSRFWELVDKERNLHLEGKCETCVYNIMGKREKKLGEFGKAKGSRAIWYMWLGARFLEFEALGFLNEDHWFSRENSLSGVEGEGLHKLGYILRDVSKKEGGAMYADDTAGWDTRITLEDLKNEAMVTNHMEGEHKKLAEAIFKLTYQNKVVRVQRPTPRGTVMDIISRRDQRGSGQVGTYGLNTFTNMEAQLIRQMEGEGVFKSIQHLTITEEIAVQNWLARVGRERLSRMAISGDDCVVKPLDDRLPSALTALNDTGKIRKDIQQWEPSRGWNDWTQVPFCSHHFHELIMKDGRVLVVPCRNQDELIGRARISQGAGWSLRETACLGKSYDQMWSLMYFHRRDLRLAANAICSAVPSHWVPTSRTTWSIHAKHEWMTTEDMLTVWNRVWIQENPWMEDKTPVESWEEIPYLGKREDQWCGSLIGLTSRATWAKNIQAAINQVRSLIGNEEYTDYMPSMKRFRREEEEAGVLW

[6] = target: T4, DNA repair and recombination protein RAD54-like (Homo sapiens, UniProt Q92698); experiment: inhibitors of human RAD54 branch migration, confirmation, biochemical, fluorescence, cherry-picked samples, dose series (AID 651657)
T4 sequence (Q92698 whole entry): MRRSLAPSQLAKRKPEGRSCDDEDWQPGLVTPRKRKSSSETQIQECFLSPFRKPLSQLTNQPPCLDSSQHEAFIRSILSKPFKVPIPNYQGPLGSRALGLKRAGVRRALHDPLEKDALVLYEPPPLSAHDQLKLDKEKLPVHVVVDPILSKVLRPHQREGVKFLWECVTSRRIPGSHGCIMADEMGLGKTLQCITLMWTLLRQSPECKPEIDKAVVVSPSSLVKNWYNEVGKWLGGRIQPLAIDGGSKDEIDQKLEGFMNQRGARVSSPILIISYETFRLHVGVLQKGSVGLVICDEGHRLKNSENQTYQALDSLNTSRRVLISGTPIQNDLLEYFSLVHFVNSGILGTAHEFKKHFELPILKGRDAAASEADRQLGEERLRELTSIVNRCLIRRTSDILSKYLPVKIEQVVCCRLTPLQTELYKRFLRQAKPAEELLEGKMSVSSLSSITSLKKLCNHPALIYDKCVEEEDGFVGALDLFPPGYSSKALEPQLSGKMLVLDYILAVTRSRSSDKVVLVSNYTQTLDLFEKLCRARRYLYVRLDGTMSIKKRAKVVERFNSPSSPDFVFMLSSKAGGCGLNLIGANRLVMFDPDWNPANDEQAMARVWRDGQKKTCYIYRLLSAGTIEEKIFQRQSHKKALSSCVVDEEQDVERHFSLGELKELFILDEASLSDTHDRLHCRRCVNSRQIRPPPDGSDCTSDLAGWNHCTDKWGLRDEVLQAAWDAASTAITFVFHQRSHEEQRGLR

Structure (SMILES)	EC50 [1]	further results
Cc1ccc(C)c2nc3sc(C(=O)O)cc3cc12	5.31 µM (active)	
CCC(C)[C@H](NC(=O)C1CC(=O)N(c2ccc3c(c2)OCO3)C1)C(=O)NC1CCCCC1 (some centres not stated)		IC50 [2]: > 66 µM (inactive); IC50 [3]: 54.9 µM (inactive)
Cc1ccc(C(=O)NC(=S)Nc2c(C)ccc3nsnc23)cc1	5.96 µM (active)	
CCCn1nc([N+](=O)[O-])c(C(C#N)c2nc3ccccc3o2)c(Cl)c1=O (configuration not stated)	6.68 µM (active)	AC50 [4]: 4.55 µM (active); EC50 [5]: > 260 µM (inactive); IC50 (Genome polyprotein): 34.7 µM (active)
O=C(NCCN1CCOCC1)c1ccc2c(c1)N(Cc1ccc(F)cc1)C(=O)CS2	4.73 µM (active)	
Cc1c(O)c(CN(C)C)cc2c1oc(=O)c1ccccc12		AC50 [6]: 35.5 µM (active)
CCn1cc(CN2CCCC(CO)(Cc3cccc(Cl)c3)C2)cn1 (configuration not stated)	5.96 µM (active)	
CCC(O)C1CCN(Cc2cn(-c3ccc(OC)cc3)nc2-c2cccc(F)c2)CC1 (configuration not stated)	10.6 µM (active)	
